Consider 16 compounds from patent publication US8242145B2, “Cyclic diaryl ether compounds as antagonists of prostaglandin D2 receptors” (Panmira Pharmaceuticals, LLC, priority 2008, dated 2012).

For one experiment, the target named is T1, human DP2 receptor (Homo sapiens, UniProt Q9Y5Y4).
T1 construct: expressed in transfected cells
T1 sequence (Q9Y5Y4 1-395): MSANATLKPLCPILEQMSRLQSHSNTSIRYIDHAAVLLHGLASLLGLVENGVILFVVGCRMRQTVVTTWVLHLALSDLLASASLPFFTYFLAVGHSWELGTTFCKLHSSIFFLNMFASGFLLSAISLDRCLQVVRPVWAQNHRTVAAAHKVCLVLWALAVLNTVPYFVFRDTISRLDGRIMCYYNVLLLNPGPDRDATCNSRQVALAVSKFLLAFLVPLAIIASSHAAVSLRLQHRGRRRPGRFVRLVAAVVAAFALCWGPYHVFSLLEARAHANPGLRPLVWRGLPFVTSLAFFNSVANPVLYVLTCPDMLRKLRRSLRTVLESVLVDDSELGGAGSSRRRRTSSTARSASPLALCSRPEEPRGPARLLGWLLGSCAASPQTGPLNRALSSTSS
The experiment can be described thus: DP2/CRTH2 radioligand binding assay using [3H]PGD2. The following applies: hDP2 (CRTH2) binding assay. On the procedure: The ability of a compound to bind to the human DP2 receptor is assessed via a radioligand binding assay using [^3H]PGD2. HEK293 cells stably expressing recombinant human DP2 are resuspended in 10 mM Hepes, 7.4 containing 1 mM DTT, lysed and centrifuged at 75,000×g to pellet the membranes. The membranes are resuspended in 10 mM Hepes, 7.4 containing 1 mM DTT and 10% glycerol to approximately 5 mg protein/ml. Membranes (2-10 μg protein/well) are incubated in 96-well plates with 1 nM [^3H]PGD2 and test compound in Assay Buffer (50 mM Hepes, 10 mM MnCl2, 1 mM EDTA, plus or minus 0.2% human serum albumin, pH 7.4) for 60 minutes at room temperature. The reactions are terminated by rapid filtration through Whatman GF/C glass fibre filter plates. The filter plates were pre-soaked in 0.33% polythylenimine for 30 minutes at room temperature then washed in Wash Buffer (50 mM Hepes, 0.5 M NaCl pH 7.4) prior to harvesting. After harvesting, the filter plates are washed 3 times with 1 ml cold Wash Buffer then dried. Scintillant is then added to the plates and the radioactivity retained on the filters is determined on a Packard TopCount (Perkin Elmer). Specific binding is determined as total radioactive binding minus non-specific binding in the presence of 10 μM PGD2. IC50s were determined using GraphPad prism analysis of drug titration curves.

The target in experiment [1] is T2, recombinant human CRTH2 receptor (Homo sapiens, UniProt Q9Y5Y4).
T2 construct: expressed in transfected cells
T2 sequence (Q9Y5Y4 1-395): T1 sequence (Q9Y5Y4 1-395)
The experiment can be described thus: GTPγS binding assay. The experiment is classed as biochemical. The following applies: +HSA; read-out: hDP2 GTPγS μM (+HSA). On the procedure: The ability of a compound to inhibit binding of GTP to DP2 is assessed via a membrane GTPγS assay. CHO cells stably expressing the recombinant human CRTH2 receptor are resuspended in 10 mM Hepes, 7.4 containing 1 mM DTT, lysed and centrifuged at 75,000×g to pellet the membranes. The membranes are resuspended in 10 mM Hepes, 7.4 containing 1 mM DTT and 10% glycerol. Membranes (˜12.5 μg per well) are incubated in 96-well plates with 0.05 nM [^35S]-GTPγS, 80 nM PGD2, 5 μM GDP, and test compound in Assay Buffer (50 mM Hepes, pH 7.4, 100 mM NaCl, 5 mM MgCl2 and 0.2% human serum albumin) for 60 minutes at 30° C. The reactions are terminated by rapid filtration through Whatman GF/B glass fibre filter plates. The filter plates are washed 3 times with 1 ml cold Assay Buffer and dried. Scintillant is then added to the plates and the radioactivity retained on the filters is determined on a Packard TopCount (Perkin Elmer). Specific binding is determined as total radioactive binding minus non-specific binding in the absence of the ligand (80 nM PGD2). IC50s were determined using Graphpad prism analysis of drug titration curves.
In general terms: GTPγS is a poorly hydrolysed GTP analogue; its binding reports G protein activation.

The target in a further experiment is T3, human DP1 receptor (Homo sapiens, UniProt Q13258).
T3 construct: tissue Biological Specialty Corporation; host or cells: human platelets, membranes
T3 sequence (Q13258 1-359): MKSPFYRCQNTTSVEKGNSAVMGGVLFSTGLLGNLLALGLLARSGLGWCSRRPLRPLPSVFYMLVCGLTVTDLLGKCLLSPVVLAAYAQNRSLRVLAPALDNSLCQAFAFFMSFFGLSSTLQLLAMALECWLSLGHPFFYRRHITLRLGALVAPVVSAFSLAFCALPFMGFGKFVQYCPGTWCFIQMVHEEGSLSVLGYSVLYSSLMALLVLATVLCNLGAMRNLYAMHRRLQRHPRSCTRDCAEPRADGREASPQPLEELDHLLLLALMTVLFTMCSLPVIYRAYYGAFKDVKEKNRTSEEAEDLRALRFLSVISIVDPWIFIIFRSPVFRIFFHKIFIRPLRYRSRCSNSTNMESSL
The experiment can be described thus: DP1 radioligand binding assay using [3H]BWA868C. The following applies: hDP1 binding. On the procedure: The ability of a compound to bind to the human DP1 receptor was evaluated via a radioligand membrane binding assay using the DP1 selective synthetic ligand [^3H]BW A868C. Packed human platelets (Biological Specialty Corporation), were resuspended in 6 volumes of Hepes/HBSS buffer (10 mM Hepes, 1 mM DTT in Hanks Balanced Salt Solution (HBSS)), lysed and centrifuged at 75,000×g to pellet the membranes. Membranes were resuspended in Hepes/HBSS buffer to approximately 12 mg protein/ml. Membranes (20 μg protein/well) are incubated in 96-well plates with 2 nM [^3H]BWA868C and test compound in Assay Buffer (50 mM Hepes, 10 mM MnCl2, 1 mM EDTA, plus or minus 0.2% human serum albumin, pH 7.4) for 60 minutes at room temperature. The reactions are terminated by rapid filtration through Whatman GF/C glass fibre filter plates. The filter plates were pre-soaked in 0.33% polethylenimine for 30 minutes at room temperature then washed in Wash Buffer (50 mM Hepes, 0.5 M NaCl pH 7.4) prior to harvesting. After harvesting, the filter plates are washed 3 times with 1 ml cold Wash Buffer then dried. Scintillant is then added to the plates and the radioactivity retained on the filters is determined on a Packard TopCount (Perkin Elmer). Specific binding is determined as total radioactive binding minus non-specific binding in the presence of 10 μM BW A868C. IC50s were determined using GraphPad prism analysis of drug titration curves.

Regarding `O=C(O)Cc1cccc(Oc2ccc(C(F)(F)F)cc2CN2CCOC2=O)c1` [Compound 1-5, {3-[2-(2-Oxo-oxazolidin-3-ylmethyl)-4-trifluoromethyl-phenoxy]-phenyl}-acetic acid], the IC50 is less than 300 nM on human DP2 receptor, less than 0.3 µM in experiment [1] and greater than 1000 nM at human DP1 receptor.

For the compound `CCNC(=O)c1ccc(Oc2cccc(CC(=O)O)c2)c(CN2CCOC2=O)c1` [Compound 1-6, {3-[4-Ethylcarbamoyl-2-(2-oxo-oxazolidin-3-ylmethyl)-phenoxy]-phenyl}-acetic acid], the results for the IC50 (at human DP2 receptor; in experiment [1]; at human DP1 receptor) were 300 to 1000 nM, 0.3 to 1 µM and greater than 1000 nM, respectively.

As to `O=C(O)Cc1cccc(Oc2ccc(-c3ccccc3)cc2CN2CCOC2=O)c1` [Compound 1-7, {3-[3-(2-Oxo-oxazolidin-3-ylmethyl)-biphenyl-4-yloxy]-phenyl}-acetic acid], the results for the IC50 (at human DP2 receptor; in experiment [1]; at human DP1 receptor) were less than 300 nM, 0.3 to 1 µM and greater than 1000 nM, respectively.

On to `O=C(O)Cc1cccc(Oc2ccc(-c3cccnc3)cc2CN2CCOC2=O)c1` [Compound 1-8, {3-[2-(2-Oxo-oxazolidin-3-ylmethyl)-4-pyridin-3-yl-phenoxy]-phenyl}-acetic acid], for which the results for the IC50 (on human DP2 receptor; in experiment [1]; on human DP1 receptor) were less than 300 nM, greater than 1 µM and greater than 1000 nM, respectively.

For the compound `COc1ccc(CC(=O)O)cc1Oc1ccc(C(F)(F)F)cc1CN1CCOC1=O` [Compound 1-9, {4-Methoxy-3-[2-(2-oxo-oxazolidin-3-ylmethyl)-4-trifluoromethyl-phenoxy]-phenyl}-acetic acid], the IC50 at human DP2 receptor was less than 300 nM; in experiment [1], less than 0.3 µM; at human DP1 receptor, greater than 1000 nM.

In the case of `CC(C(=O)O)c1cccc(Oc2ccc(C(F)(F)F)cc2CN2CCOC2=O)c1` (stereo not drawn) [Compound 1-10, 2-{3-[2-(2-Oxo-oxazolidin-3-ylmethyl)-4-trifluoromethyl-phenoxy]-phenyl}-propionic acid], the figures for the IC50 (on human DP2 receptor; in experiment [1]; at human DP1 receptor) were less than 300 nM, greater than 1 µM and greater than 1000 nM, respectively.

Turning to `O=C(O)Cc1cc(Oc2ccc(C(F)(F)F)cc2CN2CCOC2=O)ccc1-c1ccccc1` [Compound 1-13, {4-[2-(2-Oxo-oxazolidin-3-ylmethyl)-4-trifluoromethyl-phenoxy]-biphenyl-2-yl}-acetic acid], the IC50 was less than 300 nM on human DP2 receptor, 0.3 to 1 µM in experiment [1] and less than 300 nM at human DP1 receptor.

Consider `COc1ccc(CC(=O)O)cc1Oc1ccc(Br)cc1CN1CCOC1=O` [Compound 1-14, {3-[4-Bromo-2-(2-oxo-oxazolidin-3-ylmethyl)-phenoxy]-4-methoxy-phenyl}-acetic acid], for which the results for the IC50 (on human DP2 receptor; in experiment [1]; on human DP1 receptor) were less than 300 nM, less than 0.3 µM and greater than 1000 nM, respectively.

On to `C[C@H]1[C@@H](c2ccccc2)OC(=O)N1Cc1cc(Br)ccc1Oc1cccc(CC(=O)O)c1` [Compound 1-15, {3-[4-Bromo-2-((4S,5R)-4-methyl-2-oxo-5-phenyl-oxazolidin-3-ylmethyl)-phenoxy]-phenyl}-acetic acid], for which the IC50 at human DP2 receptor was less than 300 nM; in experiment [1], 0.3 to 1 µM; at human DP1 receptor it was less than 300 nM.

Consider `C[C@H]1[C@@H](c2ccc(Cl)cc2)OC(=O)N1Cc1cc(Br)ccc1Oc1cccc(CC(=O)O)c1` [Compound 1-16, (3-{4-Bromo-2-[(4S,5R)-5-(4-chloro-phenyl)-4-methyl-2-oxo-oxazolidin-3-ylmethyl]-phenoxy}-phenyl)-acetic acid], for which the IC50 is less than 300 nM on human DP2 receptor, greater than 1 µM in experiment [1] and less than 300 nM at human DP1 receptor.

`C[C@H]1[C@@H](c2cc(F)cc(F)c2)OC(=O)N1Cc1cc(Br)ccc1Oc1cccc(CC(=O)O)c1` [Compound 1-17, (3-{4-Bromo-2-[(4S,5R)-5-(3,5-difluoro-phenyl)-4-methyl-2-oxo-oxazolidin-3-ylmethyl]-phenoxy}-phenyl)-acetic acid]: the values for the IC50 (at human DP2 receptor; in experiment [1]; on human DP1 receptor) were less than 300 nM, less than 0.3 µM and less than 300 nM, respectively.

In the case of `C[C@H]1[C@@H](c2cc(C(F)(F)F)cc(C(F)(F)F)c2)OC(=O)N1Cc1cc(Br)ccc1Oc1cccc(CC(=O)O)c1` [Compound 1-18, (3-{2-[(4S,5R)-5-(3,5-Bis-trifluoromethyl-phenyl)-4-methyl-2-oxo-oxazolidin-3-ylmethyl]-4-bromo-phenoxy}-phenyl)-acetic acid], the IC50 at human DP2 receptor is less than 300 nM; in experiment [1] it was less than 0.3 µM; on human DP1 receptor it was less than 300 nM.

For `C[C@H]1[C@@H](c2ccccc2)OC(=O)N1Cc1cc(-c2cncn2C)ccc1Oc1cccc(CC(=O)O)c1` [Compound 1-22, {3-[4-(3-Methyl-3H-imidazol-4-yl)-2-((4S,5R)-4-methyl-2-oxo-5-phenyl-oxazolidin-3-ylmethyl)-phenoxy]-phenyl}-acetic acid], the IC50 on human DP2 receptor was less than 300 nM; in experiment [1], greater than 1 µM; on human DP1 receptor, 300 to 1000 nM.

With `C[C@H]1[C@@H](c2ccccc2)OC(=O)N1Cc1cc(Br)ccc1Oc1ccc(Cl)c(CC(=O)O)c1` [Compound 1-24, {5-[4-Bromo-2-((4S,5R)-4-methyl-2-oxo-5-phenyl-oxazolidin-3-ylmethyl)-phenoxy]-2-chloro-phenyl}-acetic acid], the IC50 at human DP2 receptor was 300 to 1000 nM; in experiment [1], greater than 1 µM; on human DP1 receptor, less than 300 nM.

Regarding `C[C@H]1[C@@H](c2ccccc2)OC(=O)N1Cc1cc(Br)ccc1Oc1ccc(C(F)(F)F)c(CC(=O)O)c1` [Compound 1-25, {5-[4-Bromo-2-((4S,5R)-4-methyl-2-oxo-5-phenyl-oxazolidin-3-ylmethyl)-phenoxy]-2-trifluoromethyl-phenyl}-acetic acid], the IC50 on human DP2 receptor is 300 to 1000 nM; in experiment [1], greater than 1 µM; at human DP1 receptor, greater than 1000 nM.

On to `C[C@H]1[C@@H](c2ccccc2)OC(=O)N1Cc1cc(Br)ccc1Oc1cc(F)cc(CC(=O)O)c1` [Compound 1-26, {3-[4-Bromo-2-((4S,5R)-4-methyl-2-oxo-5-phenyl-oxazolidin-3-ylmethyl)-phenoxy]-5-fluoro-phenyl}-acetic acid], for which the IC50 is less than 300 nM on human DP2 receptor, less than 0.3 µM in experiment [1] and less than 300 nM on human DP1 receptor.
